The values that follow come from patent US10004701B2, “Methods and compositions for treating infection” (UNIVERSITY OF ROCHESTER, priority 2012, dated 2018).

Like-named read-outs stand apart in the source and are kept apart here.

Holding throughout (experiment): AK assay 384-well format, Prestwick library screening
Assay [1] concerns E. cloacae. It is filed as cell-based, Enterobacter cloacae. The note with it: for fold induction at 50 µM: Enterobacter cloacae, 3 h.
Assay [2] deals with S. aureus strain USA300-0114. It is filed as cell-based, Staphylococcus aureus. The note with it: for fold induction at 50 µM: Staphylococcus aureus, USA300, 3 h.
For assay [3], the system named is K. pneumoniae. It is filed as cell-based, Klebsiella pneumoniae. The following applies: for fold induction at 50 µM: Klebsiella pneumoniae, 3 h.
Assay [4] concerns E. coli. It is filed as cell-based, Escherichia coli. The note with it: for fold induction at 50 µM: Escherichia coli, 3 h.
The subject of assay [5] is P. aeruginosa. It is filed as cell-based, Pseudomonas aeruginosa. The note with it: for fold induction at 50 µM: Pseudomonas aeruginosa, 3 h.
Assay [6] concerns A. baumannii strain 98-37-09. It is filed as cell-based, Acinetobacter baumannii. The note with it: for fold induction at 50 µM: Acinetobacter baumannii, 983709, 3 h.
Assay [7] deals with E. faecium. It is filed as cell-based, Enterococcus faecium. The note with it: for fold induction at 50 µM: Enterococcus faecium, 3 h.
The mark [8] stands for this setting: 50 μM final drug concentration, planktonic.

For the compound Mephentermine hemisulfate, in assay [1] (setting [8]), the “AK-based Prestwick Library Screening Results, E. cloacae (fold increase in extracellular AK activity)” value turned out to be 0.4. The “AK-based Prestwick Library Screening Results, S. aureus (fold increase in extracellular AK activity)” value in assay [2] (setting [8]) stood at 0.4. In addition, in assay [3] (setting [8]), the “AK-based Prestwick Library Screening Results, K. pneumoniae (fold increase in extracellular AK activity)” value is 0.5. Further, the “AK-based Prestwick Library Screening Results, E. coli (fold increase in extracellular AK activity)” value in assay [4] (setting [8]) stood at 0.5. Further, the “AK-based Prestwick Library Screening Results, P. aeruginosa (fold increase in extracellular AK activity)” value in assay [5] (setting [8]) came to 0.4. Moreover, the “AK-based Prestwick Library Screening Results, A. baumannii (fold increase in extracellular AK activity)” value in assay [6] (setting [8]) is given as 0.4. The “AK-based Prestwick Library Screening Results, E. faecium (fold increase in extracellular AK activity)” value in assay [7] (setting [8]) was 0.8.
With `C/C=C1/C[N@+]2(C)CC[C@]34C(=C(C=O)[C@H]1C[C@@H]32)Nc1ccccc14.[Cl-]` [Fluorocurarine chloride], the “AK-based Prestwick Library Screening Results, E. cloacae (fold increase in extracellular AK activity)” value in assay [1] (setting [8]) was found to be 1.4. For the same compound, the “AK-based Prestwick Library Screening Results, S. aureus (fold increase in extracellular AK activity)” value in assay [2] (setting [8]) is given as 0.8. For the same compound, the “AK-based Prestwick Library Screening Results, K. pneumoniae (fold increase in extracellular AK activity)” value in assay [3] (setting [8]) was 0.7. Also, the “AK-based Prestwick Library Screening Results, E. coli (fold increase in extracellular AK activity)” value in assay [4] (setting [8]) was determined as 0.9. Further, the “AK-based Prestwick Library Screening Results, P. aeruginosa (fold increase in extracellular AK activity)” value in assay [5] (setting [8]) turned out to be 0.8. In addition, the “AK-based Prestwick Library Screening Results, A. baumannii (fold increase in extracellular AK activity)” value in assay [6] (setting [8]) worked out at 0.9. In assay [7] (setting [8]), the “AK-based Prestwick Library Screening Results, E. faecium (fold increase in extracellular AK activity)” value turned out to be 0.9.
Consider `CCC1=C(C)CN(C(=O)NCCc2ccc(S(=O)(=O)NC(=O)N[C@H]3CC[C@H](C)CC3)cc2)C1=O` [Glimepiride], for which the fold induction at 50 µM in assay [1] (50 μM final drug concentration, planktonic, cutoff for positive-scoring molecules 3-fold increase, read-out: AK-based Prestwick Library Screening Results, E. cloacae (fold increase in extracellular AK activity)) is 0.9; in assay [2] (50 μM final drug concentration, planktonic, cutoff for positive-scoring molecules 3-fold increase, read-out: AK-based Prestwick Library Screening Results, S. aureus (fold increase in extracellular AK activity)), 0.5; in assay [3] (50 μM final drug concentration, planktonic, cutoff for positive-scoring molecules 3-fold increase, read-out: AK-based Prestwick Library Screening Results, K. pneumoniae (fold increase in extracellular AK activity)), 0.7; in assay [4] (50 μM final drug concentration, planktonic, cutoff for positive-scoring molecules 3-fold increase, read-out: AK-based Prestwick Library Screening Results, E. coli (fold increase in extracellular AK activity)) it was 0.5; in assay [5] (50 μM final drug concentration, planktonic, cutoff for positive-scoring molecules 3-fold increase, read-out: AK-based Prestwick Library Screening Results, P. aeruginosa (fold increase in extracellular AK activity)) it was 0.7; in assay [6] (50 μM final drug concentration, planktonic, cutoff for positive-scoring molecules 3-fold increase, read-out: AK-based Prestwick Library Screening Results, A. baumannii (fold increase in extracellular AK activity)), 0.7. The fold induction at 50 µM in assay [7] (50 μM final drug concentration, planktonic, cutoff for positive-scoring molecules 3-fold increase, read-out: AK-based Prestwick Library Screening Results, E. faecium (fold increase in extracellular AK activity)) is 1.4.
Turning to `Nc1ccc(S(=O)(=O)c2ccc(N)cc2)cc1` [Dapsone], the fold induction at 50 µM is 1.1 in assay [1] (50 μM final drug concentration, 384-well format, cutoff for positive-scoring molecules 3-fold increase, read-out: AK-based Prestwick Library Screening Results, E. cloacae (increase in extracellular AK activity)); 0.6 in assay [2] (50 μM final drug concentration, 384-well format, cutoff for positive-scoring molecules 3-fold increase, read-out: AK-based Prestwick Library Screening Results, S. aureus (increase in extracellular AK activity)); 0.7 in assay [3] (50 μM final drug concentration, 384-well format, cutoff for positive-scoring molecules 3-fold increase, read-out: AK-based Prestwick Library Screening Results, K. pneumoniae (increase in extracellular AK activity)); 0.8 in assay [4] (50 μM final drug concentration, 384-well format, cutoff for positive-scoring molecules 3-fold increase, read-out: AK-based Prestwick Library Screening Results, E. coli (increase in extracellular AK activity)); 0.8 in assay [5] (50 μM final drug concentration, 384-well format, cutoff for positive-scoring molecules 3-fold increase, read-out: AK-based Prestwick Library Screening Results, P. aeruginosa (increase in extracellular AK activity)); 1.3 in assay [6] (50 μM final drug concentration, 384-well format, cutoff for positive-scoring molecules 3-fold increase, read-out: AK-based Prestwick Library Screening Results, A. baumannii (increase in extracellular AK activity)). In addition, the fold induction at 50 µM in assay [7] (50 μM final drug concentration, 384-well format, cutoff for positive-scoring molecules 3-fold increase, read-out: AK-based Prestwick Library Screening Results, E. faecium (increase in extracellular AK activity)) came to 0.9.
As to `CC[C@H](C)C(=O)O[C@H]1C[C@@H](C)C=C2C=C[C@H](C)[C@H](CC[C@@H]3C[C@@H](O)CC(=O)O3)[C@H]21` [Lovastatin], the fold induction at 50 µM amounted to 1.2 in assay [1] (planktonic E. cloacae, 50 μM final drug concentration, cutoff for positive-scoring molecules 3-fold increase, read-out: AK-based Prestwick Library Screening Results, E. cloacae (increase in extracellular AK activity)); 0.3 in assay [2] (planktonic S. aureus, 50 μM final drug concentration, cutoff for positive-scoring molecules 3-fold increase, read-out: AK-based Prestwick Library Screening Results, S. aureus (increase in extracellular AK activity)); 0.8 in assay [3] (planktonic K. pneumoniae, 50 μM final drug concentration, cutoff for positive-scoring molecules 3-fold increase, read-out: AK-based Prestwick Library Screening Results, K. pneumoniae (increase in extracellular AK activity)); 1 in assay [4] (planktonic E. coli, 50 μM final drug concentration, cutoff for positive-scoring molecules 3-fold increase, read-out: AK-based Prestwick Library Screening Results, E. coli (increase in extracellular AK activity)); 0.8 in assay [5] (planktonic P. aeruginosa, 50 μM final drug concentration, cutoff for positive-scoring molecules 3-fold increase, read-out: AK-based Prestwick Library Screening Results, P. aeruginosa (increase in extracellular AK activity)); 1 in assay [6] (planktonic A. baumannii, 50 μM final drug concentration, cutoff for positive-scoring molecules 3-fold increase, read-out: AK-based Prestwick Library Screening Results, A. baumannii (increase in extracellular AK activity)). Moreover, in assay [7] (planktonic E. faecium, 50 μM final drug concentration, cutoff for positive-scoring molecules 3-fold increase, read-out: AK-based Prestwick Library Screening Results, E. faecium (increase in extracellular AK activity)), the fold induction at 50 µM stood at 1.
In the case of `O=C(O)CNC(=O)C(CS)Cc1ccccc1` (centres unmarked) [Thiorphan], the fold induction at 50 µM was 1.5 in assay [1] (read-out: AK-based Prestwick Library Screening Results, E. cloacae (fold increase in extracellular AK activity)); 1.3 in assay [2] (read-out: AK-based Prestwick Library Screening Results, S. aureus (fold increase in extracellular AK activity)); 1.3 in assay [3] (read-out: AK-based Prestwick Library Screening Results, K. pneumoniae (fold increase in extracellular AK activity)); 1.2 in assay [4] (read-out: AK-based Prestwick Library Screening Results, E. coli (fold increase in extracellular AK activity)); 1.2 in assay [5] (read-out: AK-based Prestwick Library Screening Results, P. aeruginosa (fold increase in extracellular AK activity)); 1.2 in assay [6] (read-out: AK-based Prestwick Library Screening Results, A. baumannii (fold increase in extracellular AK activity)). Moreover, the fold induction at 50 µM in assay [7] (read-out: AK-based Prestwick Library Screening Results, E. faecium (fold increase in extracellular AK activity)) is 1.
Regarding `COc1ccc(C2CNC(=O)C2)cc1OC1CCCC1` (centres unmarked) [Rolipram], the fold induction at 50 µM in assay [1] (50 μM final drug concentration, cutoff for positive-scoring molecules 3-fold increase, read-out: AK-based Prestwick Library Screening Results, E. cloacae (fold increase in extracellular AK activity)) was found to be 1.7; in assay [2] (50 μM final drug concentration, cutoff for positive-scoring molecules 3-fold increase, read-out: AK-based Prestwick Library Screening Results, S. aureus (fold increase in extracellular AK activity)), 1.3; in assay [3] (50 μM final drug concentration, cutoff for positive-scoring molecules 3-fold increase, read-out: AK-based Prestwick Library Screening Results, K. pneumoniae (fold increase in extracellular AK activity)), 1; in assay [4] (50 μM final drug concentration, cutoff for positive-scoring molecules 3-fold increase, read-out: AK-based Prestwick Library Screening Results, E. coli (fold increase in extracellular AK activity)), 1.1; in assay [5] (50 μM final drug concentration, cutoff for positive-scoring molecules 3-fold increase, read-out: AK-based Prestwick Library Screening Results, P. aeruginosa (fold increase in extracellular AK activity)) it was 1.2; in assay [6] (50 μM final drug concentration, cutoff for positive-scoring molecules 3-fold increase, read-out: AK-based Prestwick Library Screening Results, A. baumannii (fold increase in extracellular AK activity)), 1.2. Moreover, the fold induction at 50 µM in assay [7] (50 μM final drug concentration, cutoff for positive-scoring molecules 3-fold increase, read-out: AK-based Prestwick Library Screening Results, E. faecium (fold increase in extracellular AK activity)) was determined as 1.
Take `CO[C@]12C[C@@H](COC(=O)c3cncc(Br)c3)CN(C)[C@@H]1Cc1cn(C)c3cccc2c13` [Nicergoline]: the fold induction at 50 µM in assay [1] (planktonic E. cloacae, 50 μM final drug concentration, 384-well, cutoff for positive-scoring molecules 3-fold increase, read-out: AK-based Prestwick Library Screening Results: E. cloacae (increase in extracellular AK activity)) was found to be 1.2; in assay [2] (planktonic S. aureus, 50 μM final drug concentration, 384-well, cutoff for positive-scoring molecules 3-fold increase, read-out: AK-based Prestwick Library Screening Results: S. aureus (increase in extracellular AK activity)), 1.4; in assay [3] (planktonic K. pneumoniae, 50 μM final drug concentration, 384-well, cutoff for positive-scoring molecules 3-fold increase, read-out: AK-based Prestwick Library Screening Results: K. pneumoniae (increase in extracellular AK activity)) it was 1; in assay [4] (planktonic E. coli, 50 μM final drug concentration, 384-well, cutoff for positive-scoring molecules 3-fold increase, read-out: AK-based Prestwick Library Screening Results: E. coli (increase in extracellular AK activity)) it was 1.3; in assay [5] (planktonic P. aeruginosa, 50 μM final drug concentration, 384-well, cutoff for positive-scoring molecules 3-fold increase, read-out: AK-based Prestwick Library Screening Results: P. aeruginosa (increase in extracellular AK activity)), 1.2; in assay [6] (planktonic A. baumannii, 50 μM final drug concentration, 384-well, cutoff for positive-scoring molecules 3-fold increase, read-out: AK-based Prestwick Library Screening Results: A. baumannii (increase in extracellular AK activity)), 1.4. Further, the fold induction at 50 µM in assay [7] (planktonic E. faecium, 50 μM final drug concentration, 384-well, cutoff for positive-scoring molecules 3-fold increase, read-out: AK-based Prestwick Library Screening Results: E. faecium (increase in extracellular AK activity)) stood at 1.
